pEC50, pIC50: −log10 of the molar value. Like-named read-outs stand apart in the source and are kept apart here.
What was measured:
[1] = molecular target: T1, HCV NS5B (Hepatitis C virus genotype 1b, UniProt Q9WMX2); assay: HCV NS5B RdRp enzyme assay (standard / modified); assay type: biochemical
T1 construct: The protein was expressed with an 18 amino acid C-terminal truncation to enhance the solubility; made in house; host or cells: E. coli BL21 (DE3)
Summary of the method: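 NS5B genotype 1b, 18-aa C-terminal truncation, E. coli-expressed; polyA template with biotinylated oligo-dT12 primer, 3H-UTP 0.29 μM, 30° C, SPA read-out in 20 mM Hepes pH 7.5, 2% DMSO. Standard: 28 nM enzyme, 6 nM template, 180 nM primer, 60 min; modified: 14 nM enzyme, 0.2 nM template, 20 nM bead-precaptured primer, 4 h. IC50 from seven concentrations.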

[2] = test system: HCV replicon cells; assay: HCV replicon FRET / luciferase assay; assay type: cell-based; conditions: Hepatitis C virus
From the text: FRET Assay Preparation. To perform the HCV FRET screening assay, 96-well cell culture plates were used. The FRET peptide (Anaspec, Inc.) (Taliani et al., Anal. Biochem. 1996, 240, 60-67) contains a fluorescence donor, EDANS, near one end of the peptide and an acceptor, DABCYL, near the other end. The fluorescence of the peptide is quenched by […] resonance energy transfer (RET) between the donor and the acceptor, but as the NS3 protease cleaves the peptide the products are released from RET quenching and the fluorescence of the donor becomes apparent. The assay reagent was made as follows: 5× cell Luciferase cell culture lysis reagent from Promega (#E153A) diluted to 1× with dH2O, NaCl added to 150 mM final, the FRET peptide diluted to 20 μM final from a 2 mM stock.
To prepare plates, HCV replicon cells, with or without a Renilla luciferase reporter gene, were trypsinized and placed into each well of a 96-well plate with titrated test compounds added in columns 3 through 12; columns 1 and 2 contained a control compound (HCV protease inhibitor), and the bottom row contained cells without compound. The plates were then placed in a CO2 incubator at 37° C.
Assays. Subsequent to addition of the test compounds described above (FRET Assay Preparation), at various times the plate was removed and Alamar blue solution (Trek Diagnostics, #00-100) was added per well as a measure of cellular toxicity. After reading in a Cytoflour 4000 instrument (PE Biosystems), plates were rinsed with PBS and then used for FRET assay by the addition of 30 ul of the FRET peptide assay reagent described above (FRET Assay Preparation) per well. The plate was then placed into the Cytoflour 4000 instrument which had been set to 340 excite/490 emission, automatic mode for 20 cycles and the plate read in a kinetic mode. Typically, the signal to noise using an endpoint analysis after the reads was at least three-fold. Alternatively, after Alamar blue reading, plates were rinsed with PBS, 50 ul of DMEM (high glucose) without phenol red was added and plates were then used for luciferase assay using the Promega Dual-Glo Luciferase Assay System.
Compound analysis was determined by quantification of the relative HCV replicon inhibition and the relative cytotoxicity values. To calculate cytoxicity values, the average Alamar Blue fluorescence signals from the control wells were set as 100% non-toxic. The individual signals in each of the compound test wells were then divided by the average control signal and multiplied by 100% to determine […]. To calculate the HCV replicon inhibition values, an average background value was obtained from the two wells containing the highest amount of HCV protease inhibitor at the end of the assay period. These numbers were similar to those obtained from naïve Huh-7 cells.
The background numbers were then subtracted from the average signal obtained from the control wells and this number was used as 100% activity. The individual signals in each of the compound test wells were then divided by the averaged control values after background subtraction and multiplied by 100% to determine percent activity. EC50 values for a protease inhibitor titration were calculated as the concentration which caused a 50% reduction in FRET or luciferase activity. The two numbers generated for the compound plate, percent cytoxicity and percent activity were used to determine compounds of interest for further analysis.

[3] = HCV RdRp genotype 1b enzyme, read-out: IC50
[4] = HCV replicon cells, FRET or luciferase readout, read-out: EC50

T1 sequence (Q9WMX2 2420-2992): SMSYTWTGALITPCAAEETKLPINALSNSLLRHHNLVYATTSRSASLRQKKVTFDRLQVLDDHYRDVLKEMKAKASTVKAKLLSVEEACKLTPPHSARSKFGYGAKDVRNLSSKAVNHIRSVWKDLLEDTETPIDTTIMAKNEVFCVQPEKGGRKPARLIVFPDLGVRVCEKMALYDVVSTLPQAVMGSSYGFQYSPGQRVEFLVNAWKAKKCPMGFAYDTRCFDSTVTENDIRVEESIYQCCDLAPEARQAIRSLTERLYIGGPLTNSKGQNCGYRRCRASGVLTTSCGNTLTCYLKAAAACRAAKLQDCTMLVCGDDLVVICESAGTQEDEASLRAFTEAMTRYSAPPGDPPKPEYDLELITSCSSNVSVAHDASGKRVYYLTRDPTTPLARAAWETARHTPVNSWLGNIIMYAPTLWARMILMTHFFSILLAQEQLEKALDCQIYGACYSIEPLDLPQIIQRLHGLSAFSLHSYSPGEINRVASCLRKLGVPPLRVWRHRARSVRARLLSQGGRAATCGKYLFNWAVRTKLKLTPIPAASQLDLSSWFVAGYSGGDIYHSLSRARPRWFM

COc1ccc2c(c1)C=C(c1c(C(=O)N3CCOCC3)cnn1C(C)C)Cn1c-2c(C2CCCCC2)c2ccc(C(=O)NS(=O)(=O)C(C)C)cc21
pIC50 [1, 3]: 6.30 to 9.00
pEC50 [2, 4]: 6.30 to 9.00

COc1ccc2c(c1)C=C(c1c(C(=O)N3CC4CCC(C3)O4)c(C(F)(F)F)nn1C)Cn1c-2c(C2CCCCC2)c2ccc(C(=O)NS(=O)(=O)C(C)C)cc21
pIC50 [1, 3]: 6.30 to 9.00
pEC50 [2, 4]: 6.30 to 9.00

COc1ccc2c(c1)C=C(c1c(C(=O)N3CCCC3CN3CCCCC3)cnn1C)Cn1c-2c(C2CCCCC2)c2ccc(C(=O)NS(=O)(=O)N3CCOCC3)cc21 (stereo not shown)
pIC50 [1, 3]: 6.30 to 9.00
pEC50 [2, 4]: 6.30 to 9.00

COc1ccc2c(c1)C=C(c1c(C(=O)N3CC(C)OC(C)C3)cnn1C(C)C)Cn1c-2c(C2CCCCC2)c2ccc(C(=O)NS(=O)(=O)C(C)C)cc21 (stereo not shown)
pIC50 [1, 3]: 6.30 to 9.00
pEC50 [2, 4]: 6.30 to 9.00

COc1ccc2c(c1)C=C(c1c(C(=O)N3CCN(C)CC3)cnn1C)Cn1c-2c(C2CCCCC2)c2ccc(C(=O)NS(=O)(=O)C(C)C)cc21
pIC50 [1, 3]: 6.30 to 9.00
pEC50 [2, 4]: 6.30 to 9.00

COc1ccc2c(c1)C=C(c1c(C(=O)N3CCOCC3)cnn1C(C)C)Cn1c-2c(C2CCCCC2)c2ccc(C(=O)O)cc21
pIC50 [1, 3]: 6.30 to 9.00
pEC50 [2, 4]: 6.30 to 9.00

COc1ccc2c(c1)C=C(c1c(C(=O)N3C[C@@H](C)N(C)[C@@H](C)C3)cnn1C)Cn1c-2c(C2CCCCC2)c2ccc(C(=O)NS(=O)(=O)N3CCOCC3)cc21
pIC50 [1, 3]: 6.30 to 9.00
pEC50 [2, 4]: 6.30 to 9.00

COc1ccc2c(c1)C=C(c1c(C(=O)N3CCCC(N(C)C)C3)cnn1C)Cn1c-2c(C2CCCCC2)c2ccc(C(=O)NS(=O)(=O)C3CCC3)cc21 (stereo not shown)
pIC50 [1, 3]: 6.30 to 9.00
pEC50 [2, 4]: 6.30 to 9.00

COc1ccc2c(c1)C=C(c1occc1C(=O)N1CCOCC1)Cn1c-2c(C2CCCCC2)c2ccc(C(=O)NS(=O)(=O)C(C)C)cc21
pIC50 [1, 3]: 6.30 to 9.00
pEC50 [2, 4]: 6.30 to 9.00

COc1ccc2c(c1)C=C(c1c(C(=O)N3C4CCCC3COC4)cnn1CC(F)(F)F)Cn1c-2c(C2CCCCC2)c2ccc(C(=O)NS(=O)(=O)C(C)C)cc21
pIC50 [1]: 6.30 to 9.00
pEC50 [2]: 6.30 to 9.00

COc1ccc2c(c1)C=C(c1c(C(=O)N3CCOCC3)cnn1CC(F)(F)F)Cn1c-2c(C2CCCCC2)c2ccc(C(=O)NS(=O)(=O)C(C)C)cc21
pIC50 [1, 3]: 6.30 to 9.00
pEC50 [2, 4]: 6.30 to 9.00

COc1ccc2c(c1)C=C(c1c(C(=O)N3C4CCC3CN(C)C4)cnn1C)Cn1c-2c(C2CCCCC2)c2ccc(C(=O)NS(=O)(=O)N3CCCC3)cc21
pIC50 [1]: 6.30 to 9.00
pEC50 [2]: 6.30 to 9.00

CCn1ncc(C(=O)N2C3CCCC2COC3)c1C1=Cc2cc(OC)ccc2-c2c(C3CCCCC3)c3ccc(C(=O)NS(=O)(=O)C(C)C)cc3n2C1
pIC50 [1]: 6.30 to 9.00
pEC50 [2]: 6.30 to 9.00

COc1ccc2c(c1)C=C(c1c(C(=O)N3C4CCC3CN(C)C4)cnn1CC(F)(F)F)Cn1c-2c(C2CCCCC2)c2ccc(C(=O)NS(=O)(=O)C(C)C)cc21
pIC50 [1]: 6.30 to 9.00
pEC50 [2]: 6.30 to 9.00

COc1ccc2c(c1)C=C(c1c(C(=O)N3C4COCC3COC4)cnn1C)Cn1c-2c(C2CCCCC2)c2ccc(C(=O)NS(=O)(=O)N3CCOCC3)cc21
pIC50 [1]: 6.30 to 9.00
pEC50 [2]: 6.30 to 9.00

COc1ccc2c(c1)C=C(c1c(C(=O)N3C4COCC3COC4)cnn1C(C)C)Cn1c-2c(C2CCCCC2)c2ccc(C(=O)NS(=O)(=O)CC(C)C)cc21
pIC50 [1]: 6.30 to 9.00
pEC50 [2]: 6.30 to 9.00

COc1ccc2c(c1)C=C(c1c(C(=O)N3C[C@@H](C)O[C@@H](C)C3)cnn1C)Cn1c-2c(C2CCCCC2)c2ccc(C(=O)NS(=O)(=O)CC(C)C)cc21
pIC50 [1, 3]: 6.30 to 9.00
pEC50 [2, 4]: 6.30 to 9.00

COc1ccc2c(c1)C=C(c1c(C(=O)N3C[C@@H](C)N(C)[C@@H](C)C3)cnn1C(C)C)Cn1c-2c(C2CCCCC2)c2ccc(C(=O)NS(=O)(=O)CC(C)C)cc21
pIC50 [1, 3]: 6.30 to 9.00
pEC50 [2, 4]: 6.30 to 9.00

COc1ccc2c(c1)C=C(c1c(C(=O)N3C4CCC3CN(C)C4)cnn1C)Cn1c-2c(C2CCCCC2)c2ccc(C(=O)NS(=O)(=O)C3CC3)cc21
pIC50 [1]: 6.30 to 9.00
pEC50 [2]: 6.30 to 9.00

COc1ccc2c(c1)C=C(c1c(C(=O)N3C4C=C(C)CC3CC4)cnn1C(C)C)Cn1c-2c(C2CCCCC2)c2ccc(C(=O)NS(=O)(=O)CC(C)C)cc21 (stereo not shown)
pIC50 [1]: 6.30 to 9.00
pEC50 [2]: 6.30 to 9.00

— patent US8143243B2, “Compounds for the treatment of hepatitis C” (Bristol-Myers Squibb Company, priority 2007, dated 2012)
